The target in experiment [1] is T1, renin in human plasma (Homo sapiens, UniProt P00797).
T1 construct: from tissue; host or cells: human plasma from 10 normal donors, spiked with human recombinant renin (3 pM)
T1 sequence (P00797 67-406): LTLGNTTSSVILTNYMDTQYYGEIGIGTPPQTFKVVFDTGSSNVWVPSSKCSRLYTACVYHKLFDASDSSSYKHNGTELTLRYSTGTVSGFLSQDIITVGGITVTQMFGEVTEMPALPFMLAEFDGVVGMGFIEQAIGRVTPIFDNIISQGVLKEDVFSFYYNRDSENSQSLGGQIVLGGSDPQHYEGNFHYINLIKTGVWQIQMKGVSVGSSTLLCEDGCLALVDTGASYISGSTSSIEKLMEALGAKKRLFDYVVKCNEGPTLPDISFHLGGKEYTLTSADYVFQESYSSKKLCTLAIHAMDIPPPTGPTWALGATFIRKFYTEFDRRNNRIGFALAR
The experiment is described as follows: Inhibition of renin in human plasma. It is filed as biochemical. The protocol:
The enzymatic in vitro assay was performed in 384-well polypropylene plates (Nunc). The assay buffer consisted of PBS (Gibco BRL) including 1 mM EDTA and 0.1% BSA. The reaction mixture was composed of 80 μL per well of human plasma, enzyme, Ang I-antibodies mix and 5 μL of renin inhibitors in DMSO. The human plasma mix was premixed at 4° C. and consists of • human plasma from 10 normal donors • human recombinant renin (3 pM) • Ang I-antibodies. The mixtures were then incubated at 37° C. for 2 h.
To determine the enzymatic activity and its inhibition, the accumulated Ang I was detected by an enzyme immunoassay (EIA) in 384-well plates (Nunc). 10 μL of the reaction mixture or standards were transferred to immuno plates which were previously coated with a covalent complex of Ang I and bovine serum albumin (Ang I-BSA). 70 μL assay buffer were added and the plates were incubated at 4° C. overnight. The plates were washed 3 times with PBS including 0.01% Tween 20, and then incubated for 2 h at RT with an anti rabbit-peroxidase coupled antibody (WA 934, Amersham). […]

Experiment [2] has as its target T2, Renin (Homo sapiens, UniProt P00797).
T2 sequence (P00797 67-406): T1 sequence (P00797 67-406)
Nature of the experiment: Renin QFRET. The format is biochemical.

As to `COCCCc1ccc(Cl)c(CN(C(=O)C(CN)Cc2cccnc2N)C2CC2)c1` (centres unmarked) [Example 5, 3-amino-2-[(2-amino-3-pyridinyl)methyl]-N-({2-chloro-5-[3-(methyloxy)propyl]phenyl}methyl)-N-cyclopropylpropanamide], the IC50 (in general, the point on the concentration scale where inhibition reaches its midpoint) in experiment [1] was found to be 240 nM; in experiment [2], 17 nM.

(Values after patent publication US20110207783A1, “RENIN INHIBITORS” (priority 2007, published 2011).)
